Data: the supplement of paper PMC7796163
± gives the uncertainty stated by the source.

Legend:
Test in all cases: CYP enzyme activity (probe substrate metabolite formation) fold change vs solvent control; higher = stronger induction of CYP activity
Conditions in all cases: HepaRG
[1] = target: CYP2D6 (UniProt P10635)
Protocol: (§1)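 Differentiated HepaRG cells were treated with 1, 5 or 10 µM of each PAH (0.5% DMSO) for 12, 24 or 48 h, then incubated for 3 h at 37 °C with a cocktail of isoform-specific CYP substrates (phenacetin for CYP1A2, bupropion for CYP2B6, amodiaquine for CYP2C8, tolbutamide for CYP2C9, mephenytoin for CYP2C19, propafenone for CYP2D6, atorvastatin for CYP3A4). Metabolite formation was quantified by LC-MS as a measure of CYP activity and reported as fold change over solvent control (mean ± SD, n=3). Values below the LLOQ were set to half the LLOQ.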

[2] = target: T1, CYP1A2 (UniProt P05177)
T1 sequence (whole entry): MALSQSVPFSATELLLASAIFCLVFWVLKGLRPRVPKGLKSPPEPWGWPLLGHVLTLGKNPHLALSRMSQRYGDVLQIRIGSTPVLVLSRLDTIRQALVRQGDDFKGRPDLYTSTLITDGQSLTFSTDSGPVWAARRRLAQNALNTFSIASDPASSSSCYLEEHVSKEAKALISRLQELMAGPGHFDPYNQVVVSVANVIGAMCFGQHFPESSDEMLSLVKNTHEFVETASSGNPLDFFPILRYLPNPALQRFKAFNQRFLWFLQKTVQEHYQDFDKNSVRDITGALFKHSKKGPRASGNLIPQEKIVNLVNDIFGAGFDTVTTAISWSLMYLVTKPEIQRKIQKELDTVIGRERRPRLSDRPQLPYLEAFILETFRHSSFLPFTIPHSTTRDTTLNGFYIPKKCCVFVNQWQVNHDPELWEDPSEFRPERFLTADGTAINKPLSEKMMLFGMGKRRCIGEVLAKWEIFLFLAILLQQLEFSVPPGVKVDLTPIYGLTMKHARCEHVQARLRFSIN
Protocol: as §1

[3] = target: CYP2C19 (UniProt P33261)
Protocol: as §1

[4] = target: CYP3A4 (UniProt P08684)
Protocol: as §1

[5] = target: T2, CYP2C8 (UniProt P10632)
T2 sequence (whole entry): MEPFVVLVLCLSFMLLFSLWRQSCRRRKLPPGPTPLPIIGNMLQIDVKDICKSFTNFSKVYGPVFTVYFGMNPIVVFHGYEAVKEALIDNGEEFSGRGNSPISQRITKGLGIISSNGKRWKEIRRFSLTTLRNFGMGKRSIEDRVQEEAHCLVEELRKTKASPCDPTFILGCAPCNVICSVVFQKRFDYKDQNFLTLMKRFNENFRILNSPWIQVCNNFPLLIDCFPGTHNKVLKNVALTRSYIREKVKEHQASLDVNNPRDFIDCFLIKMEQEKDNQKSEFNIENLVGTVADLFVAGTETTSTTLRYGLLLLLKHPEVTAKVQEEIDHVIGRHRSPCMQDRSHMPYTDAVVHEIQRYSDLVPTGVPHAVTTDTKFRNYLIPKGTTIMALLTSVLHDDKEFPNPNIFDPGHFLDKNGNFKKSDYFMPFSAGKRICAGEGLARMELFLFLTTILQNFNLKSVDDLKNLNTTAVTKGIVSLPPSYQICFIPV
Protocol: as §1

[6] = target: CYP2C9 (UniProt P11712)
Protocol: as §1

[7] = target: T3, CYP2B6 (UniProt P20813)
T3 sequence (whole entry): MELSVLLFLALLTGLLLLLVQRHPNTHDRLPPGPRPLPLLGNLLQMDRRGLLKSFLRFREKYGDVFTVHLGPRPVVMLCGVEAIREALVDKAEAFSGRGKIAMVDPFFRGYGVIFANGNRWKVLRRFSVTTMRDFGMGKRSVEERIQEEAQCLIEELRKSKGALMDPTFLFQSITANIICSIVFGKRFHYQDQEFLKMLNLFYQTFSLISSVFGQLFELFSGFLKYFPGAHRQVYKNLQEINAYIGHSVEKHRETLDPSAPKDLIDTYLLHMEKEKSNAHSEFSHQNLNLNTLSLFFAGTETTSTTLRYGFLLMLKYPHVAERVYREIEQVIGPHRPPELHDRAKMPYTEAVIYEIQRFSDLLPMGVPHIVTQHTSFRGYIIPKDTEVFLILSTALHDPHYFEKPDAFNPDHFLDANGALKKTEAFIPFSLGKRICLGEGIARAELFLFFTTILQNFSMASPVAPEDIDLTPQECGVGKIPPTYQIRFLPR
Protocol: as §1

Chain of CYP2C9 (P11712 whole entry): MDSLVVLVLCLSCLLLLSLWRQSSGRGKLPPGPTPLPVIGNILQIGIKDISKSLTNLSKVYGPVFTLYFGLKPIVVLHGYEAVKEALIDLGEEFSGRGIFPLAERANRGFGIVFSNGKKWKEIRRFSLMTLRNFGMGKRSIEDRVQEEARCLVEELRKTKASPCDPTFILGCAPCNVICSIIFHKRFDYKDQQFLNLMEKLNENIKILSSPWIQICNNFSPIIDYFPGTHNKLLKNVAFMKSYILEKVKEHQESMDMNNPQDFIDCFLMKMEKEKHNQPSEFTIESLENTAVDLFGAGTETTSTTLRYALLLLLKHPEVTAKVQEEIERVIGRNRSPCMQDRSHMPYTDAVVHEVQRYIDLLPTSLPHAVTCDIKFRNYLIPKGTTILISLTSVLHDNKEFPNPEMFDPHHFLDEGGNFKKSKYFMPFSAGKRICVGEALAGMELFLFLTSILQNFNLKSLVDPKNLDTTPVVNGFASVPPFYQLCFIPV
Chain of CYP3A4 (P08684 whole entry): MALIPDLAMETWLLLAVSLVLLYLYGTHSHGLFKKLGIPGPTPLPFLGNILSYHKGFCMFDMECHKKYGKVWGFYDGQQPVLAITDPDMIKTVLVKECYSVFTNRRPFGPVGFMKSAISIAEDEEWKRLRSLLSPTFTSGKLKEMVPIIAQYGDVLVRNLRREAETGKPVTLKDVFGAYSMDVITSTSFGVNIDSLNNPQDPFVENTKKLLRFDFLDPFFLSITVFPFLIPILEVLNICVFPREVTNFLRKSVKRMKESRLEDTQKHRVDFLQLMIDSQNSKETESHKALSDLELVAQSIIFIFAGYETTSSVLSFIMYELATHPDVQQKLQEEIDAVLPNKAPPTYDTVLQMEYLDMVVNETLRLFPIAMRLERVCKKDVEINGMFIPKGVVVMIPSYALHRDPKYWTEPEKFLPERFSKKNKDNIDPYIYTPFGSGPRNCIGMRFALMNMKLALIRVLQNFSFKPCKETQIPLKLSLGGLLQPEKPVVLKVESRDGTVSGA
Chain of CYP2C19 (P33261 whole entry): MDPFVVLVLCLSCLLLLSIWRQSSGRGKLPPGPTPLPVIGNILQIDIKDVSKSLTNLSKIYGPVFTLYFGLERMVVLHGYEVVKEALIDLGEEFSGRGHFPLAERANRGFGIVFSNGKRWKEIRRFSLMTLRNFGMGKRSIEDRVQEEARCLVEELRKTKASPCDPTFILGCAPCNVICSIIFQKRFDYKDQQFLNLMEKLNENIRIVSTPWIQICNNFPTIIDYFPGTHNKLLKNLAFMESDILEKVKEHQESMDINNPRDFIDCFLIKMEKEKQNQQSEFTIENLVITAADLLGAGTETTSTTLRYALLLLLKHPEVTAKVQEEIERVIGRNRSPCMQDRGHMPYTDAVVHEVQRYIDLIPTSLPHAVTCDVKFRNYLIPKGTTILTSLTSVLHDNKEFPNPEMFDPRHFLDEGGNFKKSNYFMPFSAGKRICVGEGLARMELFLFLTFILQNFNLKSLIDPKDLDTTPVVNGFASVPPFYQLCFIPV
Chain of CYP2D6 (P10635 whole entry, canonical isoform): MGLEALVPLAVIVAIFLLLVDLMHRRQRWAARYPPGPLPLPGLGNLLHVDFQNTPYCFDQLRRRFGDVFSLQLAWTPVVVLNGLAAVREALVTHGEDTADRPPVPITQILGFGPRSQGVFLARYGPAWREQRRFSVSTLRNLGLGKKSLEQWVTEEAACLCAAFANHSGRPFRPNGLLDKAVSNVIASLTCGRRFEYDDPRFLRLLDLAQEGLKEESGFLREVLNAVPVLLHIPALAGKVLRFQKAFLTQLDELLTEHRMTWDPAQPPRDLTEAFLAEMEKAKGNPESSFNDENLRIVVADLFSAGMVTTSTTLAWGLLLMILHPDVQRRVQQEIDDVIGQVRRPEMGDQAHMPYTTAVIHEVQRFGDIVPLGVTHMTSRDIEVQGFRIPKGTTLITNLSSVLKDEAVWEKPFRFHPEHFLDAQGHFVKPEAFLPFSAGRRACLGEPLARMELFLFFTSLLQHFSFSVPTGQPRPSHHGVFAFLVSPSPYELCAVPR

c1ccc2cc3c(ccc4ccccc43)cc2c1 [benzo[a]anthracene]
CYP enzyme activity
Conditions | [1] | [2] | [3] | [4] | [5] | [6] | [7]
1 µM, treatment time 12 h | 0.865 ± 0.17 | 1.41 ± 0.23 | 0.754 ± 0.053 | 0.717 ± 0.12 | 0.978 ± 0.036 | 0.88 ± 0.17 | 0.781 ± 0.096
1 µM, treatment time 24 h | 0.833 ± 0.064 | 1.01 ± 0.13 | 0.826 ± 0.19 | 0.662 ± 0.062 | 0.978 ± 0.085 | 1 ± 0.16 | 0.901 ± 0.12
1 µM, treatment time 48 h | 0.696 ± 0.0073 | 0.817 ± 0.083 | 0.862 ± 0.046 | 0.702 ± 0.075 | 1.01 ± 0.067 | 0.927 ± 0.054 | 0.683 ± 0.039
5 µM, treatment time 12 h | 1.66 ± 0.47 | 5.62 ± 2.2 | 0.94 ± 0.1 | 0.809 ± 0.11 | 0.953 ± 0.026 | 0.995 ± 0.12 | 1.1 ± 0.087
5 µM, treatment time 24 h | 1.15 ± 0.099 | 4.68 ± 0.96 | 0.934 ± 0.086 | 0.844 ± 0.086 | 0.973 ± 0.075 | 1.02 ± 0.18 | 1.45 ± 0.18
5 µM, treatment time 48 h | 0.774 ± 0.19 | 1.98 ± 0.22 | 1.003 ± 0.0076 | 0.754 ± 0.12 | 0.898 ± 0.067 | 0.989 ± 0.055 | 0.896 ± 0.1
10 µM, treatment time 12 h | 2.55 ± 0.8 | 9.59 ± 3 | 0.934 ± 0.083 | 0.907 ± 0.23 | 0.992 ± 0.067 | 0.949 ± 0.11 | 1.11 ± 0.12
10 µM, treatment time 24 h | 1.41 ± 0.24 | 9.37 ± 2 | 0.925 ± 0.022 | 0.855 ± 0.062 | 0.875 ± 0.045 | 1.02 ± 0.064 | 1.63 ± 0.068
10 µM, treatment time 48 h | 0.712 ± 0.12 | 3.86 ± 0.35 | 0.882 ± 0.072 | 0.702 ± 0.12 | 0.792 ± 0.051 | 0.849 ± 0.063 | 0.97 ± 0.2

c1ccc2c(c1)cc1ccc3cccc4ccc2c1c34 [benzo[a]pyrene]
CYP enzyme activity
Conditions | [1] | [2] | [3] | [4] | [5] | [6] | [7]
1 µM, treatment time 12 h | 1.11 ± 0.13 | 2.02 ± 0.5 | 0.898 ± 0.067 | 0.849 ± 0.017 | 0.886 ± 0.018 | 0.945 ± 0.053 | 0.982 ± 0.071
1 µM, treatment time 24 h | 0.883 ± 0.052 | 1.3 ± 0.2 | 0.895 ± 0.047 | 0.812 ± 0.028 | 0.925 ± 0.046 | 1 ± 0.083 | 1.14 ± 0.038
1 µM, treatment time 48 h | 0.691 ± 0.036 | 0.816 ± 0.018 | 0.85 ± 0.022 | 0.734 ± 0.015 | 0.895 ± 0.068 | 0.896 ± 0.046 | 0.753 ± 0.072
5 µM, treatment time 12 h | 2.43 ± 0.59 | 7.75 ± 2.4 | 0.908 ± 0.018 | 1.04 ± 0.099 | 0.671 ± 0.18 | 0.85 ± 0.15 | 1.22 ± 0.11
5 µM, treatment time 24 h | 1.07 ± 0.061 | 4.55 ± 0.78 | 0.847 ± 0.049 | 0.834 ± 0.081 | 0.774 ± 0.055 | 1.03 ± 0.12 | 1.61 ± 0.17
5 µM, treatment time 48 h | 0.598 ± 0.074 | 1.04 ± 0.031 | 0.855 ± 0.065 | 0.678 ± 0.071 | 0.686 ± 0.1 | 0.773 ± 0.014 | 0.977 ± 0.33
10 µM, treatment time 12 h | 2.24 ± 0.058 | 5.63 ± 1.7 | 0.761 ± 0.12 | 1.05 ± 0.074 | 0.464 ± 0.15 | 0.67 ± 0.14 | 0.881 ± 0.15
10 µM, treatment time 24 h | 1.34 ± 0.086 | 7.76 ± 0.89 | 0.835 ± 0.018 | 0.762 ± 0.047 | 0.66 ± 0.056 | 0.872 ± 0.022 | 1.52 ± 0.38
10 µM, treatment time 48 h | 0.51 ± 0.14 | 1.24 ± 0.013 | 0.661 ± 0.18 | 0.599 ± 0.14 | 0.415 ± 0.11 | 0.654 ± 0.17 | 0.954 ± 0.42

c1ccc2c(c1)-c1cccc3c1c-2cc1ccccc13 [benzo[b]fluoranthene]
CYP enzyme activity
Conditions | [1] | [2] | [3] | [4] | [5] | [6] | [7]
1 µM, treatment time 12 h | 1.24 ± 0.26 | 2.68 ± 0.92 | 0.955 ± 0.065 | 0.857 ± 0.088 | 0.95 ± 0.059 | 0.95 ± 0.068 | 1.04 ± 0.12
1 µM, treatment time 24 h | 0.924 ± 0.014 | 1.78 ± 0.26 | 0.885 ± 0.077 | 0.751 ± 0.05 | 0.906 ± 0.061 | 0.907 ± 0.047 | 1.23 ± 0.21
1 µM, treatment time 48 h | 0.763 ± 0.16 | 1.75 ± 0.34 | 0.984 ± 0.12 | 0.732 ± 0.054 | 0.908 ± 0.032 | 0.891 ± 0.057 | 0.832 ± 0.04
5 µM, treatment time 12 h | 1.38 ± 0.062 | 3.81 ± 1.8 | 1.05 ± 0.093 | 0.925 ± 0.14 | 0.951 ± 0.12 | 0.978 ± 0.029 | 1.29 ± 0.24
5 µM, treatment time 24 h | 1.52 ± 0.3 | 9.11 ± 0.86 | 0.951 ± 0.09 | 0.823 ± 0.044 | 0.817 ± 0.037 | 0.951 ± 0.093 | 2.08 ± 0.27
5 µM, treatment time 48 h | 0.934 ± 0.28 | 5.4 ± 0.71 | 0.976 ± 0.013 | 0.732 ± 0.074 | 0.717 ± 0.059 | 0.82 ± 0.018 | 1.33 ± 0.17
10 µM, treatment time 12 h | 1.19 ± 0.13 | 0.947 ± 0.035 | 0.995 ± 0.21 | 0.875 ± 0.079 | 0.929 ± 0.079 | 0.939 ± 0.12 | 1.21 ± 0.054
10 µM, treatment time 24 h | 1.87 ± 0.37 | 13.2 ± 1.1 | 0.876 ± 0.084 | 0.723 ± 0.029 | 0.758 ± 0.11 | 0.842 ± 0.071 | 1.71 ± 0.42
10 µM, treatment time 48 h | 0.823 ± 0.18 | 7.06 ± 0.33 | 0.667 ± 0.11 | 0.495 ± 0.081 | 0.444 ± 0.07 | 0.602 ± 0.13 | 1.4 ± 0.22
